For assay [1], the target named is 5-hydroxytryptamine receptor 5A (Homo sapiens) (UniProt P47898). The assay is described as follows: Displacement of [3H]LSD from human 5-HT5A receptor expressed in Flp-In-CHO cell membranes incubated for 90 mins under dark condition by microbeta scintillation counting method relative to control. Also on record: concentration or dose not given beside the values.

Assay [2] addresses T1, 5-hydroxytryptamine receptor 2B (Homo sapiens, UniProt P41595). The following applies: HEK293, at 10 µM.
In assay [3] the target is T2, 5-hydroxytryptamine receptor 1A (Homo sapiens) (UniProt P08908).
T2 sequence (whole entry): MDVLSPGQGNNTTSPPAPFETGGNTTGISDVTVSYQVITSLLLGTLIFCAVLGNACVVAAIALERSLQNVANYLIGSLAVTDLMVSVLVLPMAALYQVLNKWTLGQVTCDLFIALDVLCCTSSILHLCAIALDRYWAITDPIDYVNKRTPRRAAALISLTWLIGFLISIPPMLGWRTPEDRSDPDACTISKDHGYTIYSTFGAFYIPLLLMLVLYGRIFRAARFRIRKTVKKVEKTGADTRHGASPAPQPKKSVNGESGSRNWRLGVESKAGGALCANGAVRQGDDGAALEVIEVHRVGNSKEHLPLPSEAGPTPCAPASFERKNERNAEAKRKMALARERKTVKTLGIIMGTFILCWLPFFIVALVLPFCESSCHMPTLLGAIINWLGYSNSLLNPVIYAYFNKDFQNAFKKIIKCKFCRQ
The experiment in a line: Displacement of [3H]WAY100635 from human 5-HT1AR expressed in CHO cell membranes at 10 uM incubated for 90 mins under dark condition by microbeta scintillation counting method relative to control.

The target of assay [4] is T3, 5-hydroxytryptamine receptor 3A (Homo sapiens) (UniProt P46098).
T3 sequence (whole entry): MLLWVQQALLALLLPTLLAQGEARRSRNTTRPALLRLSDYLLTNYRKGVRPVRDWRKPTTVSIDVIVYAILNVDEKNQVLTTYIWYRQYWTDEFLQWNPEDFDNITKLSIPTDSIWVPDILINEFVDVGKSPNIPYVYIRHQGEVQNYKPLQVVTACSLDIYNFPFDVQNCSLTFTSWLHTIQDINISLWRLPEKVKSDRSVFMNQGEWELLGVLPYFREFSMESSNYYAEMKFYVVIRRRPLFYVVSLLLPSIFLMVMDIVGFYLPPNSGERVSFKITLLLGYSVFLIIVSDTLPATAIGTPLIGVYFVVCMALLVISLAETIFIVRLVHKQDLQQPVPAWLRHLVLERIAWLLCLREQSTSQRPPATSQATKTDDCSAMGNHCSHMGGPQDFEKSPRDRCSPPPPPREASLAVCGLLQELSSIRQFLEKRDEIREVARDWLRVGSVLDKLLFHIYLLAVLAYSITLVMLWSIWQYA
The experiment in a line: Displacement of [3H]GR65630 from human 5-HT3 receptor expressed in HEK-T cell membranes at 10 uM incubated for 90 mins under dark condition by microbeta scintillation counting method relative to control. A general note: Displacement assays read how much labelled ligand stays bound in the presence of the test substance.

Assay [5] deals with 5-hydroxytryptamine receptor 6 (Homo sapiens) (UniProt P50406). The assay is described as follows: Displacement of [3H]LSD from human 5-HT6 receptor expressed in HEK cell membranes at 10 uM incubated for 90 mins under dark condition by microbeta scintillation counting method relative to control. Conditions: HEK293.
Chain of 5-hydroxytryptamine receptor 6 (Homo sapiens) (P50406 whole entry): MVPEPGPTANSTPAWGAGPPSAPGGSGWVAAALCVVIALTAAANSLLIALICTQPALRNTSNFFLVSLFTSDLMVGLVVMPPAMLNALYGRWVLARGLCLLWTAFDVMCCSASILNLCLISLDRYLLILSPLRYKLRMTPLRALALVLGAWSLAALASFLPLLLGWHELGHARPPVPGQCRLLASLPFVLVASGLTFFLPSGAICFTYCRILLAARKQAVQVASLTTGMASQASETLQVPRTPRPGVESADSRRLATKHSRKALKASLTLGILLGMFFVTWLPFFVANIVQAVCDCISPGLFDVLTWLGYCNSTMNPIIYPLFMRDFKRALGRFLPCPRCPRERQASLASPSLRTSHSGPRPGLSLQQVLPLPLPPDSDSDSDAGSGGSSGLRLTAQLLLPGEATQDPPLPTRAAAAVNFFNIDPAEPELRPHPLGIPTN
In assay [6] the target is 5-hydroxytryptamine receptor 1D (Homo sapiens) (UniProt P28221). The experiment in a line: Displacement of [3H]5-CT from human 5-HT1D receptor expressed in HEK-T cell membranes at 10 uM incubated for 90 mins under dark condition by microbeta scintillation counting method relative to control.
Chain of 5-hydroxytryptamine receptor 1D (Homo sapiens) (P28221 whole entry): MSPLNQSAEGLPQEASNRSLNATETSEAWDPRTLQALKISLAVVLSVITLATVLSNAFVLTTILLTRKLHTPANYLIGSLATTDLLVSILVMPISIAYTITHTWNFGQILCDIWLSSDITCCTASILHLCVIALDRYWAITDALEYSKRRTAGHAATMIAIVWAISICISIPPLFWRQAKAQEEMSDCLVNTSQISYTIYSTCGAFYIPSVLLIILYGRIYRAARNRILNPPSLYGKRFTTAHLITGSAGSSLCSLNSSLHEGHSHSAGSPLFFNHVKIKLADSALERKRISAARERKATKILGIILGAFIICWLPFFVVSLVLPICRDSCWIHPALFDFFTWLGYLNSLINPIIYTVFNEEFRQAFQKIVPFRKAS
The target of assay [7] is 5-hydroxytryptamine receptor 4 (Homo sapiens) (UniProt Q13639). The assay is described as follows: Displacement of [3H]GR113808 from human 5-HT4 receptor at 10 uM incubated for 90 mins under dark condition by microbeta scintillation counting method relative to control.
Chain of 5-hydroxytryptamine receptor 4 (Homo sapiens) (Q13639 whole entry): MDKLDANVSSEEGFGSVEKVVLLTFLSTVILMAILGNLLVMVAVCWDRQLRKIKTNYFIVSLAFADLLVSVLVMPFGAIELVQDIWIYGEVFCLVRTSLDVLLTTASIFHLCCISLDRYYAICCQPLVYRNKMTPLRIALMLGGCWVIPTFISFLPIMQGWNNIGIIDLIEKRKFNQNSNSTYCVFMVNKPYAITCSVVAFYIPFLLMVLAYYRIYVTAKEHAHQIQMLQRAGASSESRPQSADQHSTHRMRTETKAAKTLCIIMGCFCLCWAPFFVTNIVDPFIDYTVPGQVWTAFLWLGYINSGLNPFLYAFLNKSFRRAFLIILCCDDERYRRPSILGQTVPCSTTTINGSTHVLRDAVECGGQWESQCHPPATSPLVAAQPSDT
Assay [8] deals with 5-hydroxytryptamine receptor 1B (Homo sapiens) (UniProt P28222). The experiment in a line: Displacement of [3H]5-CT from human 5-HT1BR expressed in HEK cell membranes at 10 uM incubated for 90 mins under dark condition by microbeta scintillation counting method relative to control. The following applies: HEK293.
Chain of 5-hydroxytryptamine receptor 1B (Homo sapiens) (P28222 whole entry): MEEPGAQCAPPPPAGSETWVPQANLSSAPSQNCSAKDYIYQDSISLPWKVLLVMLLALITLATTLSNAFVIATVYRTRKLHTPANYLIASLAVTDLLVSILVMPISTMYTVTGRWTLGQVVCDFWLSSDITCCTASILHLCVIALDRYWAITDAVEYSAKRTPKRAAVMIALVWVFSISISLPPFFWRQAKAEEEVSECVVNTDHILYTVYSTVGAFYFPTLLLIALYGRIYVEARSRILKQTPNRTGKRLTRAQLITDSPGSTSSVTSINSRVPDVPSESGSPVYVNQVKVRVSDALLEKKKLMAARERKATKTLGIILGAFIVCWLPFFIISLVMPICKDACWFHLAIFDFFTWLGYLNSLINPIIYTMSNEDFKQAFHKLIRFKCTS
The target in assay [9] is T4, 5-hydroxytryptamine receptor 2A (Homo sapiens, UniProt P28223). The experiment in a line: Displacement of [3H]ketanserin from human 5-HT2A receptor expressed in HEK-T cell membranes incubated for 90 mins under dark condition by microbeta scintillation counting method.
T4 sequence (P28223 whole entry): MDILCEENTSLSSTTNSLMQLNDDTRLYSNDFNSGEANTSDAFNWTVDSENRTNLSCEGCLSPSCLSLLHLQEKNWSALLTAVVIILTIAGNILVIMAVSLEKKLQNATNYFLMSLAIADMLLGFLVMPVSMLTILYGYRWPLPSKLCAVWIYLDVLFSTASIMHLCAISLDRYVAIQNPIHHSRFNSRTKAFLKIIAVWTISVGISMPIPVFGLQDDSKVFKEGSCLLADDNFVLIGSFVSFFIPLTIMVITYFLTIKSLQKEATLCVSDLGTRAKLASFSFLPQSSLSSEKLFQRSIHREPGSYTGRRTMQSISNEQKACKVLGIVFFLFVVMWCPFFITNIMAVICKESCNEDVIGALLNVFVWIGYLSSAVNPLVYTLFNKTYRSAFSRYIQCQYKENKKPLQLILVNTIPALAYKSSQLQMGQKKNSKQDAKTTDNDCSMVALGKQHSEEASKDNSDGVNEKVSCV
The target of assay [10] is T4, 5-hydroxytryptamine receptor 2A. The experiment in a line: Displacement of [3H]ketanserin from human 5-HT2A receptor expressed in HEK-T cell membranes at 10 uM incubated for 90 mins under dark condition by microbeta scintillation counting method relative to control.
Assay [11] deals with 5-hydroxytryptamine receptor 1E (Homo sapiens) (UniProt P28566). The experiment in a line: Displacement of [3H]5-HT from human 5-HT1E receptor expressed in HEK cell membranes at 10 uM incubated for 90 mins under dark condition by microbeta scintillation counting method relative to control. Conditions: HEK293.
Chain of 5-hydroxytryptamine receptor 1E (Homo sapiens) (P28566 whole entry): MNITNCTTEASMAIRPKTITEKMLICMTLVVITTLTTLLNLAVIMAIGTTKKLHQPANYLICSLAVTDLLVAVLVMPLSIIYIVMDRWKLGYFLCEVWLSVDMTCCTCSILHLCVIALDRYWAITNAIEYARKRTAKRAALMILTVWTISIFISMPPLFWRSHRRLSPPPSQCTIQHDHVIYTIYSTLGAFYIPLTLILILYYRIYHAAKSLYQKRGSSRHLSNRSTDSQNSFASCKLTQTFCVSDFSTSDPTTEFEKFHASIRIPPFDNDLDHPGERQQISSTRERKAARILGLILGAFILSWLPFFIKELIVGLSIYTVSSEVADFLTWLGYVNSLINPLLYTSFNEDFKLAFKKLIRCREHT
The target in assay [12] is 5-hydroxytryptamine receptor 7 (Homo sapiens) (UniProt P34969). The assay is described as follows: Displacement of [3H]LSD from human 5-HT7A receptor expressed in HEK cell membranes at 10 uM incubated for 90 mins under dark condition by microbeta scintillation counting method relative to control. The following applies: HEK293.
Chain of 5-hydroxytryptamine receptor 7 (Homo sapiens) (P34969 whole entry): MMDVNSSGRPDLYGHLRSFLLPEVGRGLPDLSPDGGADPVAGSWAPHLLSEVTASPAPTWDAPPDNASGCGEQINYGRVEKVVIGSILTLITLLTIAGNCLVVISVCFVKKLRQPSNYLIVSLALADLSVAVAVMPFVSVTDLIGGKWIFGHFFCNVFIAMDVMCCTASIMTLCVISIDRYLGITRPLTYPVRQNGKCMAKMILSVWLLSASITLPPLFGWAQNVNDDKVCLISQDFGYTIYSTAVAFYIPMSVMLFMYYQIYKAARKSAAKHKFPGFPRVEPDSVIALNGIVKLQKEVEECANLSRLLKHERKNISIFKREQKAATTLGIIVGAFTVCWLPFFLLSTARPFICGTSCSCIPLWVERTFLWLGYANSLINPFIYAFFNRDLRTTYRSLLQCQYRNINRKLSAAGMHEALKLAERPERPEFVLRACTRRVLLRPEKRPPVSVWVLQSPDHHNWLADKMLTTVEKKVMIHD
Assay [13] addresses T5, 5-hydroxytryptamine receptor 2C (Homo sapiens) (UniProt P28335).
T5 sequence (whole entry): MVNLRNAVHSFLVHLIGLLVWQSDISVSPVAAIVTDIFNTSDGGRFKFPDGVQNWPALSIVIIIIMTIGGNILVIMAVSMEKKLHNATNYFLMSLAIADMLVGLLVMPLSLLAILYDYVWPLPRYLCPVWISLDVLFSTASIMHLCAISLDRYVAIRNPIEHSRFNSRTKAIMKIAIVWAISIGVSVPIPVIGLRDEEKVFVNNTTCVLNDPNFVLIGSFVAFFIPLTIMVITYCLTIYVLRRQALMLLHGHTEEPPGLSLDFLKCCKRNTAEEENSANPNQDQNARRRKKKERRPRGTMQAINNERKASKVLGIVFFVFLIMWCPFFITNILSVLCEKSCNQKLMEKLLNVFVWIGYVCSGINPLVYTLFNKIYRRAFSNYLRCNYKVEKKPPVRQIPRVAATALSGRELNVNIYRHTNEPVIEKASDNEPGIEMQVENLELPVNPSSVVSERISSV
The assay is described as follows: Displacement of [3H]mesulergine from human 5-HT2CR expressed in Flp-In HEK cell membranes at 10 uM incubated for 90 mins under dark condition by microbeta scintillation counting method relative to control. Conditions: HEK293.

Assay [14] deals with T6, Adenosine receptor A1 (Homo sapiens) (UniProt P30542).
T6 sequence (whole entry): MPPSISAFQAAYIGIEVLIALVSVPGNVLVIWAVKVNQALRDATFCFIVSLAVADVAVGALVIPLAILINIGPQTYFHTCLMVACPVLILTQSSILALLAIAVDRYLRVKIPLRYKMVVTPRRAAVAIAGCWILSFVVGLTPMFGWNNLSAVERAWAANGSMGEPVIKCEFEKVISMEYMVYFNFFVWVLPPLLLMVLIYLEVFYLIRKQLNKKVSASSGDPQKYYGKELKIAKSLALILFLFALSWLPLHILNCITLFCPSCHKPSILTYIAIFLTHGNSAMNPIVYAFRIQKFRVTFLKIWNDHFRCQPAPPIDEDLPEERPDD
The assay is described as follows: Displacement of [3H]N6-phenylisopropyladenosine from recombinant human A1AR expressed in CHO cell membranes at 10 uM after 60 mins by liquid scintillation counting method relative to control.

The target of assay [15] is Adenosine receptor A2a (Homo sapiens, UniProt P29274). The experiment in a line: Displacement of [3 H]2-[p-(2-carboxyethyl)phenyl-ethylamino]-5'-N-ethylcarboxamidoadenosine from recombinant human adenosine receptor A2A expressed in HEK293 cell membranes at 10 uM after 60 mins by liquid scintillation counting method relative to control.
Chain of Adenosine receptor A2a (P29274 whole entry): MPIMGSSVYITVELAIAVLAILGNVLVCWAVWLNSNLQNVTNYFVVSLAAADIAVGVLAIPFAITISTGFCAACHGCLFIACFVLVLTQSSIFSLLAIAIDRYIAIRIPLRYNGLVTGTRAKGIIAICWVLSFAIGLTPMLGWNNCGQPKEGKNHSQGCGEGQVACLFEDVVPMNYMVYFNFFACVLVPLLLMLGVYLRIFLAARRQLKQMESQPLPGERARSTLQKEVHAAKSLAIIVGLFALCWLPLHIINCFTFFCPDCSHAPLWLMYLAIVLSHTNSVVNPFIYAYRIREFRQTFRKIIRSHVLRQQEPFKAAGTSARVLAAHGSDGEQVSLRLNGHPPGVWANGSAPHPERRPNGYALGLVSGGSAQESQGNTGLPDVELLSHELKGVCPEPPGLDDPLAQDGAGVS
The target in assay [16] is T7, Adenosine receptor A3 (Homo sapiens, UniProt P0DMS8).
T7 sequence (P0DMS8 whole entry): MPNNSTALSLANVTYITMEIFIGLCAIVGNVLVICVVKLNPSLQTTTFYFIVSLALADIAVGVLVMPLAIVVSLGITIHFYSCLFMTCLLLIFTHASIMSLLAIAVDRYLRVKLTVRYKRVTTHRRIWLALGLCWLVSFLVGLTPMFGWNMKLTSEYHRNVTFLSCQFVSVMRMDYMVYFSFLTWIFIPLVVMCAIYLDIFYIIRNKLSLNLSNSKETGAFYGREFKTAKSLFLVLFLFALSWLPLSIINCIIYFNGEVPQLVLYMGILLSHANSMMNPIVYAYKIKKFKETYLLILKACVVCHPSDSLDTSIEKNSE
The experiment in a line: Displacement of [125l]N 6-(4-amino-3-iodobenzyl)adenosine-5'-N-methyluronamide from recombinant human A3AR expressed in CHO cell membranes after 60 mins by gamma counting method.

In assay [17] the target is T8, 5-hydroxytryptamine receptor 2C (Homo sapiens, UniProt P28335).
T8 sequence (P28335 whole entry): T5 sequence (whole entry)
The experiment in a line: Displacement of [3H]mesulergine from human 5-HT2CR expressed in Flp-In HEK cell membranes incubated for 90 mins under dark condition by microbeta scintillation counting method. Also on record: species or system HEK293.

For assay [18], the target named is T9, Adenosine receptor A1 (Homo sapiens, UniProt P30542).
T9 sequence (P30542 whole entry): T6 sequence (whole entry)
The assay is described as follows: Displacement of [3H]N6-phenylisopropyladenosine from recombinant human A1AR expressed in CHO cell membranes after 60 mins by liquid scintillation counting method.

Assay [19] has as its target T1, 5-hydroxytryptamine receptor 2B. The assay is described as follows: biochemical. The assay is classed as cell-based, HEK293.

pKi: −log10 of the molar value. Activity calls are given as the source filed them. No cut-off for these calls is given here.

T1 sequence (P41595 whole entry): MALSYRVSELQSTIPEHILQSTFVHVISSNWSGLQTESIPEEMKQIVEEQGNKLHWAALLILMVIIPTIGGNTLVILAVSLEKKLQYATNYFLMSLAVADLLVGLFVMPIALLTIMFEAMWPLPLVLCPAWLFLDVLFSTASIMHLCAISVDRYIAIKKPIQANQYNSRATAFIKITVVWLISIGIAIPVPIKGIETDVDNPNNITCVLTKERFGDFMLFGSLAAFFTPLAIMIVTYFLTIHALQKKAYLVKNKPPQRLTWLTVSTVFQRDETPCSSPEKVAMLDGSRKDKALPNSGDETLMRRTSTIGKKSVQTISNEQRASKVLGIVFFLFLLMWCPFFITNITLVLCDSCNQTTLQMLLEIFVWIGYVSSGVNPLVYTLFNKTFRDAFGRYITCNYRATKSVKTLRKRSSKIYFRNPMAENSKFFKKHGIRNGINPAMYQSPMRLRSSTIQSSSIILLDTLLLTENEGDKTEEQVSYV
Chain of 5-hydroxytryptamine receptor 5A (Homo sapiens) (P47898 whole entry): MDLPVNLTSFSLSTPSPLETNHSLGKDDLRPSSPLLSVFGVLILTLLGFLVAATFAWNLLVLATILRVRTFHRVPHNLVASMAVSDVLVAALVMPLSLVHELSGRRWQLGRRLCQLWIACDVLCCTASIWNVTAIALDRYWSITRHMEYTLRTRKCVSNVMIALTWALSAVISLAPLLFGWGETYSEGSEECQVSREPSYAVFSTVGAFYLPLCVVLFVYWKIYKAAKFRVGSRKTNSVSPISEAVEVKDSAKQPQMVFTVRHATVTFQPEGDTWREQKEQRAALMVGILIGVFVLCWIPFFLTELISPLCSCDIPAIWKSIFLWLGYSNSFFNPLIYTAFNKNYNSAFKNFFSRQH

As usually defined, the inhibition is the share of the control response that was lost under treatment. What is called pKi is the Ki on a negative log10 scale, so that one unit is a factor of ten. Turning to `Fc1ccc(C#Cc2nc(NCc3cccc(Cl)c3)c3nc[nH]c3n2)cc1F`, the inhibition in [1] was < 50%; in [2], > 50%; in assay [3] it was < 50%; in assay [4], < 50%; in assay [5] it was < 50%; in assay [6], < 50%. The inhibition in assay [7] was < 50%; in assay [8] it was < 50%; in assay [10], < 10%; in assay [11], < 50%; in assay [12], < 50%; in assay [13], 11%. Moreover, the inhibition in [14] and in [15] was < 10% each time. Besides, in assay [9], the pKi is < 5.00.

With `CC(C)[C@@H](Nc1nc(Cl)nc2c1ncn2[C@H]1[C@H](O)[C@H](O)[C@]2(CO)C[C@H]12)C1CC1`, the inhibition in assay [1], in assay [3], in [4], in assay [5], in assay [6] and in [7] was < 50% in each case. Moreover, the inhibition is < 50% in assay [8]; < 10% in assay [10]; < 50% in assay [11]; < 50% in assay [12]; > 50% in [13]. In addition, the pKi in assay [16] is 5.91; in assay [17] it was 6.72; in assay [9] it was < 5.00; in [18], 6.99.

For `CN(C)c1nc(Cl)nc2c1ncn2[C@H]1[C@H](O)[C@H](O)[C@]2(C(=O)O)C[C@H]12`, the inhibition entry in [1] was “Active”. Further, the inhibition in assay [2] is > 50%; in assay [3] it was < 50%; in assay [4], < 50%; in [5] it was < 50%; in assay [6] it was < 50%; in [7], < 50%. Besides, the inhibition in assay [8] is < 50%; in [10] it was < 10%; in [11], < 50%; in [12] it was < 50%; in [13], > 50%; in assay [15] it was < 10%. Moreover, the pKi is 5.97 in [16], 5.33 in [19], 5.10 in [17] and < 5.00 in [9].

Turning to `O=C(O)[C@@]12C[C@@H]1[C@@H](n1cnc3c(NC(C4CC4)C4CC4)nc(Cl)nc31)[C@H](O)[C@@H]2O`, the inhibition in assay [1], in assay [3], in assay [4], in assay [5], in assay [6] and in assay [7] was < 50% throughout. For the same molecule, the inhibition in assay [8] was < 50%; in [10], < 10%; in assay [11] it was < 50%; in assay [12] it was < 50%; in assay [13], > 50%; in assay [15], < 10%. For the same molecule, the pKi is 5.22 in assay [16], 5.59 in assay [17] and < 5.00 in assay [9].

Turning to `Clc1cccc(CNc2nc(Cl)nc3[nH]cnc23)c1`, the inhibition is < 50% in [1]; > 50% in [2]; < 50% in assay [3]; < 50% in assay [4]; < 50% in assay [5]; < 50% in assay [6]. In addition, the inhibition in assay [7] is < 50%; in assay [8], < 50%; in [10] it was 26%; in assay [11] it was < 50%; in assay [12], < 50%; in assay [13] it was > 50%. For the same molecule, the inhibition is 45% in [14] and 37% in assay [15]. Besides, the pKi in assay [19] was 5.67; in assay [9], < 5.00.

As to `CC(=O)NCCNC(=O)[C@@]12C[C@@H]1[C@@H](n1cnc3c(NC(C4CC4)C4CC4)nc(Cl)nc31)[C@H](O)[C@@H]2O`, the inhibition was < 50% in assay [1]; > 50% in [2]; < 50% in [3]; < 50% in assay [4]; < 50% in assay [5]; < 50% in assay [6]. For the same molecule, the inhibition in [7] was < 50%; in [8], < 50%; in [10] it was < 10%; in assay [11] it was < 50%; in assay [12] it was < 50%; in assay [13] it was > 50%. Also, the inhibition in [15] is 20%. The pKi is 5.78 in assay [16]; 6.48 in assay [19]; 5.77 in [17]; < 5.00 in assay [9]; 6.40 in [18].

These data come from ChEMBL document CHEMBL3862033 (J Med Chem, 2016).
